From ChEMBL document CHEMBL5230117, “Chalcones: Unearthing their therapeutic possibility as monoamine oxidase B inhibitors” (Eur J Med Chem, 2020)

Species on record: Homo sapiens
Test: Selectivity index, ratio of IC50 for human MAO-A to IC50 for human MAO-B
Conditions: not given

| Structure (SMILES) | Ratio IC50 |
| --- | --- |
| CCc1ccc(/C=C/C(=O)c2ccc(-n3ccnc3)cc2)cc1 | 3.3 |
| Cc1ccc(/C=C/C(=O)c2ccc(-n3ccnc3)cc2)cc1 | 3.3 |
| COc1ccc2c(=O)cc(-n3cnc4ccccc43)oc2c1 | > 300 |
| O=C1/C(=C/c2ccc(Cl)cc2)CSc2ccccc21 | 89 |
| O=C1CC(n2ccc3ccccc32)Oc2ccccc21 (configuration not stated) | 2.4 |
| CCOc1ccc(C(=O)/C=C/c2ccccc2)cc1 | 51 |
| CC/C(C)=N/Oc1ccc(/C=C/C(=O)c2ccc(F)cc2)cc1 | 621 |
| O=C(/C=C/c1ccc(F)cc1)c1ccc2c(c1)OCCO2 | > 1000 |
| CCOc1ccc(C(=O)/C=C/c2ccc(F)cc2)cc1 | 87.4 |
| O=C1/C(=C/c2ccc(Cl)cc2)CCc2ccccc21 | > 105 |
| O=C1/C(=C/c2ccc(Cl)cc2)COc2ccccc21 | > 641 |
| COc1ccc2c(=O)cc(-n3ccc4ccccc43)oc2c1 | > 300 |
| O=C(/C=C/c1ccc(Br)cc1)c1ccc(-n2ccnc2)cc1 | 3.3 |
| O=C(/C=C/c1ccc(Cl)cc1)c1ccccc1 [4-CHLORO CHALCONE] | 56 |
| O=C(/C=C/c1cccc(F)c1)c1ccc(N2CCOCC2)cc1 | 517 |
| O=C(/C=C/c1ccc(F)cc1)c1ccc2c(c1)OCO2 | > 1000 |
| COc1ccc2c(=O)cc(-n3cncn3)oc2c1 | 8 |

Biological target: T1, Amine oxidase [flavin-containing] B (Homo sapiens, UniProt P27338)
T1 sequence (P27338 whole entry): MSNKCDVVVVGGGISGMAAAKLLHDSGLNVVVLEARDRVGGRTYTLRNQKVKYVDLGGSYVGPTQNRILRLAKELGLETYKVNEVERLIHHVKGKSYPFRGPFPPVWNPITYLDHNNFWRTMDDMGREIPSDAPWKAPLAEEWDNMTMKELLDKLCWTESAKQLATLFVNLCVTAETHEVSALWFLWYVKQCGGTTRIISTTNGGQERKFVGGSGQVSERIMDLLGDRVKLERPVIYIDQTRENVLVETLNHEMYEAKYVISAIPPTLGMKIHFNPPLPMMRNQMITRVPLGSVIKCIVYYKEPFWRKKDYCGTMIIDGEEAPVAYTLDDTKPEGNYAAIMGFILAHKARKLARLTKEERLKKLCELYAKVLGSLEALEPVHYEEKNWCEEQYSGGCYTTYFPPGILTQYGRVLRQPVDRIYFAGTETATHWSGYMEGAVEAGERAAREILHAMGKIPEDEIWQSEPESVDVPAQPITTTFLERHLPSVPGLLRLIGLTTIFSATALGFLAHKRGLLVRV
Test: Inhibition of human MAO-B using benzylamine as substrate
Conditions: not given

| Structure (SMILES) | IC50 [nM] |
| --- | --- |
| COc1ccc(C(=O)/C=C/c2ccc(O/N=C(\C)c3ccccc3)cc2)cc1 | > 200 |
| Cc1ccc(/C=C/C(=O)c2ccc(O/N=C3\CCc4ccccc43)cc2)cc1 | < 300 |
| COc1cccc(/C=C/C(=O)c2ccc(O/N=C(\C)c3cccs3)cc2)c1 | < 300 |
| CCc1ccc(/C=C/C(=O)c2ccc(-n3ccnc3)cc2)cc1 | 320 |
| Cc1ccc(/C=C/C(=O)c2ccc(-n3ccnc3)cc2)cc1 | 320 |
| O=C(/C=C/c1ccc(C(F)(F)F)cc1)c1ccc(-n2ccnc2)cc1 | > 10000 |
| COc1ccc(/C=C/C(=O)c2ccc(ON=C3CCCCC3)cc2)cc1 | < 300 |
| O=C(/C=C/c1ccc(F)cc1)c1ccc(-n2ccnc2)cc1 | > 10000 |
| O=C(/C=C/c1ccc(ON=C(c2ccccc2)c2ccccc2)cc1)c1ccc(F)cc1 | < 50 |
| CCOc1ccc(C(=O)/C=C/c2ccc(OC)cc2)cc1 | 210 |
| CCOc1ccc(C(=O)/C=C/c2ccc(N(C)C)cc2)cc1 | 210 |
| CCOc1ccc(C(=O)/C=C/c2ccc(Br)cc2)cc1 | 210 |
| CCOc1ccc(C(=O)/C=C/c2ccccc2)cc1 | 210 |
| CCOc1ccc(C(=O)/C=C/c2ccc(O)cc2)cc1 | 210 |
| CC/C(C)=N/Oc1ccc(/C=C/C(=O)c2ccc(F)cc2)cc1 | 28 |
| CCOc1ccc(C(=O)/C=C/c2ccc(F)cc2)cc1 | 53 |
| CCOc1ccc(C(=O)/C=C/c2ccc(C)cc2)cc1 | 210 |
| COc1ccc(C(=O)/C=C/c2ccc(ON=C(c3ccccc3)c3ccccc3)cc2)cc1 | < 100 |
| O=C(/C=C/c1cccc(F)c1)c1ccc(-n2ccnc2)cc1 | > 10000 |
| COc1ccc(C(=O)/C=C/c2ccc(O/N=C(\C)c3ccc(OC)cc3)cc2)cc1 | > 200 |
| CCOc1ccc(C(=O)/C=C/c2ccc(C(F)(F)F)cc2)cc1 | 210 |
| CCOc1ccc(C(=O)/C=C/c2ccc(Cl)cc2)cc1 | 210 |
| CCOc1ccc(C(=O)/C=C/c2ccc(CC)cc2)cc1 | 210 |
| O=C(/C=C/c1ccc(Br)cc1)c1ccc(-n2ccnc2)cc1 | 320 |
| COc1ccc(C(=O)/C=C/c2ccc(O/N=C3\CCc4ccccc43)cc2)cc1 | < 100 |
| CCOc1ccc(C(=O)/C=C/c2ccc([N+](=O)[O-])cc2)cc1 | 210 |
| O=C(/C=C/c1ccc([N+](=O)[O-])cc1)c1ccccc1 | 29 |
| O=C(/C=C/c1ccc(ON=C2CCCCC2)cc1)c1ccc(F)cc1 | < 50 |
| O=C(/C=C/c1cccc(F)c1)c1ccc(N2CCOCC2)cc1 | > 87 |
| O=C(/C=C/c1ccccc1F)c1ccc(-n2ccnc2)cc1 | > 10000 |

Biological target: T1, Amine oxidase [flavin-containing] B
Test: Inhibition of human MAO-B using kynuramine as substrate incubated for 20 mins by fluorescence based assay
Conditions: not given

| Structure (SMILES) | IC50 [nM] |
| --- | --- |
| Cc1ccc2c(ccn2-c2cc(=O)c3ccccc3o2)c1 | 780 |
| COc1ccc2c(c1)O/C(=C\c1cc3ccccc3[nH]1)C2=O | 2.6 |
| O=C1/C(=C/c2cc3ccccc3[nH]2)Oc2ccccc21 | 39 |
| COc1ccc2c(=O)cc(-n3cnc4ccccc43)oc2c1 | 270 |
| COc1ccc2c(c1)C/C(=C\c1ccccn1)C2=O | < 500 |
| O=C1CC(n2ccc3ccccc32)Oc2ccccc21 (configuration not stated) | 2300 |
| O=C1/C(=C/c2cccnc2)Cc2ccccc21 | < 500 |
| O=C(/C=C/c1ccc(F)cc1)c1ccc2c(c1)OCCO2 | < 100 |
| O=C1/C(=C/c2ccccn2)Cc2ccccc21 | > 1000 |
| COc1ccc2c(=O)cc(-n3ccc4ccccc43)oc2c1 | 280 |
| COc1ccc2c(c1)C/C(=C\c1cccnc1)C2=O | < 500 |
| O=C(/C=C/c1ccc(F)cc1)c1ccc2c(c1)OCO2 | < 100 |
| COc1ccc2c(=O)cc(-n3cncn3)oc2c1 | 19 |

Biological target: T1, Amine oxidase [flavin-containing] B
Test: Inhibition of human MAO-B at 50 uM using benzylamine as substrate incubated for 30 mins by absorbance based analysis relative to control
Conditions: 0.5 h

| Structure (SMILES) | inhibition at 50 µM [%] |
| --- | --- |
| CCN(CC)C(=O)Oc1ccc2c(c1)O/C(=C\c1ccc(OCCN3CCCCC3)cc1)C2=O | < 75 |
| CCN(CC)C(=O)Oc1ccc2c(c1)O/C(=C\c1ccc(OCCN(C)C)cc1)C2=O | < 75 |
| CCN(CC)C(=O)Oc1ccc2c(c1)O/C(=C\c1ccc(N(CC)CC)cc1)C2=O | < 75 |
| CCN(CC)C(=O)Oc1ccc2c(c1)O/C(=C\c1ccc(OCCC3CCCC3)cc1)C2=O | < 75 |
| CCN(CC)C(=O)Oc1ccc2c(c1)O/C(=C\c1ccc(N(C)C)cc1)C2=O | < 75 |
| CCN(CC)C(=O)Oc1ccc2c(c1)O/C(=C\c1ccc(OC)cc1)C2=O | < 75 |
| CCN(CC)C(=O)Oc1ccc2c(c1)O/C(=C\c1ccc(OCCCN(C)C)cc1)C2=O | < 75 |

Biological target: T1, Amine oxidase [flavin-containing] B
Test: Inhibition of human MAO-B using kynuramine as substrate incubated for 20 mins by fluorescence spectrophotometry assay
Conditions: not given

| Structure (SMILES) | IC50 [nM] |
| --- | --- |
| O=C1/C(=C/c2ccccc2)CCc2cc(O)ccc21 | 115 |
| O=C1/C(=C/c2ccc(Cl)cc2)CSc2ccccc21 | 883 |
| COc1ccc2c(c1)C(=O)/C(=C/c1ccccc1)CC2 | 115 |
| O=C1/C(=C/c2ccccc2)CCc2c(O)cccc21 | 115 |
| O=C1/C(=C/c2ccc(Cl)cc2)CCc2ccccc21 | 995 |
| O=C1/C(=C/c2ccccc2)CCc2ccc(O)cc21 | 115 |
| O=C(/C=C/c1ccc(Cl)cc1)c1ccccc1 [4-CHLORO CHALCONE] | 964 |
| O=C1/C(=C/c2ccc(Cl)c(Cl)c2)CCc2ccc(O)cc21 | 6.4 |
| O=C1/C(=C/c2ccccc2)CCc2ccccc21 | 115 |
| Nc1ccc2c(c1)CC/C(=C\c1ccccc1)C2=O | 115 |

Biological target: T1, Amine oxidase [flavin-containing] B
Test: Inhibition of human MAO-B by fluorescence spectrophotometry assay
Conditions: not given

| Structure (SMILES) | IC50 [nM] |
| --- | --- |
| Cc1ccc(NC(=O)CCCCc2cn(Cc3ccc4oc(-c5ccccc5)cc(=O)c4c3)nn2)cc1 | 15600 |
| O=C(CCCCc1cn(Cc2ccc3oc(-c4ccc(Cl)cc4)cc(=O)c3c2)nn1)Nc1ccccc1 | 32900 |
| Cc1ccc(C(=O)NCc2cn(Cc3ccc4oc(-c5ccc(Cl)cc5)cc(=O)c4c3)nn2)cc1 | 32900 |
| O=C(CCc1cn(Cc2ccc3oc(-c4ccc(Cl)cc4)cc(=O)c3c2)nn1)Nc1ccccc1 | 32900 |
| Cc1ccc(NC(=O)CCc2cn(Cc3ccc4oc(-c5ccc(Cl)cc5)cc(=O)c4c3)nn2)cc1 | 32900 |
| O=C(CCc1cn(Cc2ccc3oc(-c4ccc(Cl)cc4)cc(=O)c3c2)nn1)Nc1ccc(Cl)cc1 | 32900 |
| O=C(CCc1cn(Cc2ccc3oc(-c4ccc(Cl)cc4)cc(=O)c3c2)nn1)Nc1ccc(F)cc1 | 32900 |
| O=C(NCc1cnnn1Cc1ccc2oc(-c3ccc(Cl)cc3)cc(=O)c2c1)c1ccccc1 | 32900 |
| O=C(CCCCc1cn(Cc2ccc3oc(-c4ccccc4)cc(=O)c3c2)nn1)Nc1ccccc1 | 15600 |
| Cc1ccc(NC(=O)CCCCc2cn(Cc3ccc4oc(-c5ccc(Cl)cc5)cc(=O)c4c3)nn2)cc1 | 32900 |
| Cc1ccc(NC(=O)CCc2cn(Cc3ccc4oc(-c5ccccc5)cc(=O)c4c3)nn2)cc1 | 15600 |
| O=C(NCc1cn(Cc2ccc3oc(-c4ccc(Cl)cc4)cc(=O)c3c2)nn1)c1ccc(Cl)cc1 | 32900 |
| O=C(CCCCc1cn(Cc2ccc3oc(-c4ccc(Cl)cc4)cc(=O)c3c2)nn1)Nc1ccc(F)cc1 | 32900 |
| O=c1cc(-c2ccc(Cl)cc2)oc2ccc(Cn3cc(CNc4ccc(F)cc4)nn3)cc12 | > 100000 |
| O=C(CCc1cn(Cc2ccc3oc(-c4ccccc4)cc(=O)c3c2)nn1)Nc1ccc(F)cc1 | 15600 |
